Experimental data from the NIST ThermoML archive (doi:10.1021/acs.jced.8b00132).
Several values for one entry are separate records, joined by “and”; a condition that tells them apart may be missing. Identical values can stand only once.

O=C(C(F)(F)C(F)(F)F)C(F)(C(F)(F)F)C(F)(F)F [dodecafluoro-2-methylpentan-3-one]
Details | thermal conductivity
329.25 K, 73 kPa, Gas, hot wire | 0.0137 W/m/K
329.26 K, 72 kPa, Gas, hot wire | 0.01377 W/m/K and 0.01374 W/m/K
329.31 K, 120 kPa, Gas, hot wire | 0.01393 W/m/K
329.32 K, 120 kPa, Gas, hot wire | 0.01375 W/m/K
329.34 K, 27 kPa, Gas, hot wire | 0.01343 W/m/K
329.35 K, 27 kPa, Gas, hot wire | 0.01345 W/m/K
329.36 K, 26 kPa, Gas, hot wire | 0.01404 W/m/K
329.37 K, 26 kPa, Gas, hot wire | 0.01398 W/m/K
329.38 K, 120 kPa, Gas, hot wire | 0.01375 W/m/K
329.39 K, 105 kPa, Gas, hot wire | 0.01386 W/m/K
329.39 K, 120 kPa, Gas, hot wire | 0.01376 W/m/K
329.4 K, 105 kPa, Gas, hot wire | 0.01386 W/m/K
329.42 K, 73 kPa, Gas, hot wire | 0.01371 W/m/K and 0.01373 W/m/K
329.43 K, 72 kPa, Gas, hot wire | 0.01372 W/m/K and 0.01375 W/m/K
329.43 K, 67798 kPa, Liquid, transient hot wire | 0.07589 W/m/K
329.43 K, 67830 kPa, Liquid, transient hot wire | 0.07595 W/m/K
329.47 K, 120 kPa, Gas, hot wire | 0.01394 W/m/K
329.48 K, 120 kPa, Gas, hot wire | 0.01386 W/m/K
329.48 K, 57461 kPa, Liquid, transient hot wire | 0.0733 W/m/K
329.49 K, 57474 kPa, Liquid, transient hot wire | 0.07325 W/m/K
329.5 K, 26 kPa, Gas, hot wire | 0.01349 W/m/K
329.51 K, 27 kPa, Gas, hot wire | 0.01348 W/m/K
329.52 K, 26 kPa, Gas, hot wire | 0.01408 W/m/K
329.53 K, 26 kPa, Gas, hot wire | 0.01404 W/m/K
329.56 K, 46607 kPa, Liquid, transient hot wire | 0.07024 W/m/K
329.56 K, 46614 kPa, Liquid, transient hot wire | 0.07022 W/m/K
329.57 K, 105 kPa, Gas, hot wire | 0.01395 W/m/K and 0.01394 W/m/K
329.57 K, 120 kPa, Gas, hot wire | 0.01381 W/m/K
329.58 K, 120 kPa, Gas, hot wire | 0.01371 W/m/K
329.6 K, 72 kPa, Gas, hot wire | 0.01381 W/m/K
329.6 K, 73 kPa, Gas, hot wire | 0.01369 W/m/K and 0.01372 W/m/K
329.6 K, 67772 kPa, Liquid, transient hot wire | 0.07593 W/m/K
329.6 K, 67790 kPa, Liquid, transient hot wire | 0.07593 W/m/K
329.61 K, 72 kPa, Gas, hot wire | 0.01376 W/m/K
329.63 K, 36730 kPa, Liquid, transient hot wire | 0.06726 W/m/K
329.63 K, 36735 kPa, Liquid, transient hot wire | 0.06721 W/m/K
329.65 K, 120 kPa, Gas, hot wire | 0.01392 W/m/K
329.66 K, 119 kPa, Gas, hot wire | 0.0139 W/m/K
329.66 K, 57448 kPa, Liquid, transient hot wire | 0.07322 W/m/K
329.68 K, 27 kPa, Gas, hot wire | 0.01357 W/m/K
329.68 K, 27945 kPa, Liquid, transient hot wire | 0.06427 W/m/K
329.68 K, 27946 kPa, Liquid, transient hot wire | 0.0643 W/m/K
329.68 K, 57441 kPa, Liquid, transient hot wire | 0.07323 W/m/K
329.69 K, 27 kPa, Gas, hot wire | 0.0135 W/m/K
329.7 K, 26 kPa, Gas, hot wire | 0.01403 W/m/K and 0.01401 W/m/K
329.74 K, 20516 kPa, Liquid, transient hot wire | 0.0619 W/m/K
329.74 K, 20518 kPa, Liquid, transient hot wire | 0.0616 W/m/K
329.74 K, 46598 kPa, Liquid, transient hot wire | 0.07033 W/m/K
329.74 K, 46602 kPa, Liquid, transient hot wire | 0.07022 W/m/K
329.75 K, 104 kPa, Gas, hot wire | 0.01402 W/m/K
329.76 K, 104 kPa, Gas, hot wire | 0.01399 W/m/K
329.77 K, 120 kPa, Gas, hot wire | 0.01378 W/m/K
329.79 K, 73 kPa, Gas, hot wire | 0.01373 W/m/K
329.79 K, 120 kPa, Gas, hot wire | 0.01373 W/m/K
329.8 K, 14125 kPa, Liquid, transient hot wire | 0.05898 W/m/K
329.8 K, 14126 kPa, Liquid, transient hot wire | 0.05901 W/m/K
329.8 K, 67755 kPa, Liquid, transient hot wire | 0.07593 W/m/K
329.81 K, 67741 kPa, Liquid, transient hot wire | 0.07589 W/m/K
329.82 K, 36726 kPa, Liquid, transient hot wire | 0.06718 W/m/K
329.82 K, 36730 kPa, Liquid, transient hot wire | 0.0673 W/m/K
329.83 K, 118 kPa, Gas, hot wire | 0.01407 W/m/K
329.84 K, 118 kPa, Gas, hot wire | 0.01403 W/m/K
329.85 K, 73 kPa, Gas, hot wire | 0.01336 W/m/K
329.86 K, 72 kPa, Gas, hot wire | 0.01334 W/m/K
329.86 K, 8619 kPa, Liquid, transient hot wire | 0.05649 W/m/K
329.86 K, 57414 kPa, Liquid, transient hot wire | 0.07321 W/m/K
329.86 K, 57423 kPa, Liquid, transient hot wire | 0.07327 W/m/K
329.87 K, 27 kPa, Gas, hot wire | 0.01359 W/m/K and 0.01357 W/m/K
329.87 K, 8621 kPa, Liquid, transient hot wire | 0.05651 W/m/K
329.87 K, 27941 kPa, Liquid, transient hot wire | 0.06427 W/m/K
329.88 K, 27942 kPa, Liquid, transient hot wire | 0.06429 W/m/K
329.91 K, 4467 kPa, Liquid, transient hot wire | 0.05452 W/m/K
329.91 K, 4470 kPa, Liquid, transient hot wire | 0.05445 W/m/K
329.94 K, 26 kPa, Gas, hot wire | 0.01354 W/m/K and 0.01352 W/m/K
329.94 K, 20524 kPa, Liquid, transient hot wire | 0.06153 W/m/K
329.94 K, 46588 kPa, Liquid, transient hot wire | 0.07021 W/m/K
329.94 K, 46601 kPa, Liquid, transient hot wire | 0.07018 W/m/K
329.95 K, 20523 kPa, Liquid, transient hot wire | 0.06156 W/m/K
329.97 K, 120 kPa, Gas, hot wire | 0.01385 W/m/K
329.97 K, 177 kPa, Liquid, transient hot wire | 0.05208 W/m/K
329.97 K, 178 kPa, Liquid, transient hot wire | 0.05208 W/m/K
329.99 K, 120 kPa, Gas, hot wire | 0.01382 W/m/K
329.99 K, 180 kPa, Liquid, transient hot wire | 0.05206 W/m/K
329.99 K, 67709 kPa, Liquid, transient hot wire | 0.0759 W/m/K
